# Data: patent US20250017964A1, “ENGINEERING OR INDUCING PDGF AND/OR PDGFR SIGNALING TO ENHANCE NK CELL THERAPY” (City of Hope, priority 2021, published 2025)
# Tested on: murine NK cells
# Assay: PDGFRβ expression in murine splenic NK cells, flow cytometry
# Type: cell-based, mouse
# Method: FIGS. 7A-7F. […] Data shown are representative histograms and mean fluorescence intensity (MFI) of PDGFRα. […] Expression levels of PDGFRβ were examined by flow cytometry (n=6). […] Data shown are the percentages of PDGFRβ^+ NK cells among total NK cells (n=5). […] Data shown are representative histograms with MFI of PDGFRβ expression. (F) Expression levels of PDGFRβ on NK cells from IL-15 transgenic (Tg) mice were determined by flow cytometry. Data shown are representative histograms. Data represent three independent experiments.
# Mouse NK cells were isolated from the spleen of C57BL/6J or IL-15 transgenic mice, using the EasySep Mouse NK Cell Isolation Kit ([…] Technologies) as previously described (11).
# Cells were stained with the indicated cell-surface markers and/or fixed/permeabilized using a Fixation/Permeabilization Kit (eBioscience). For intracellular staining of IFN-γ and PDGF-D, 5 μg/ml Brefeldin A (BioLegend) was added for 4 h before cell harvest. Intracellular staining of Ki67 was performed by fixing and permeabilizing with the Foxp3/Transcription Factor Staining Kit (eBioscience). […] Data were analyzed using NovoExpress software (Agilent Technologies).
substance,measurement,setting,value
IL-15: recombinant human IL-15 (200-15); recombinant murine IL-15 in the mouse NK cell test,PDGFRβ on NK cells from IL-15 transgenic mice,"long-term IL-15 stimulation, IL-15 transgenic mice",could not detect any PDGFRβ
same,PDGFRβ expression in murine NK cells,"splenic NK cells of C57BL/6 mice, mouse cytokines 10 ng/ml, 24 h",did not express PDGFRβ
